One assay relates to SAMD9 promoter. As to the kind of experiment: High-throughput luciferase reporter screen in HeLa line stably expressing 585 bp SAMD9 promoter fragment. The class given is cell-based, human. Particulars: fold increase in promoter activity by luciferase assay vs cells treated with vehicle only, test drugs 10 μM, 24 hours; for fold induction at 10 µM: Homo sapiens, HeLa, read-out: SAMD9 expression fold change in HeLa reporter assay. The procedure: HeLa cell lines stably expressing the constructs were generated under neomycin selection. Briefly, pGL4.17 containing a SAMD9 promoter fragment spanning 585 bp upstream to the TSS and an empty pGL4.17 vector were transfected into HeLa cells. Forty eight hours after transfection, standard medium was replaced with medium containing 600 μg/ml G418 (Sigma-Aldrich), cells were kept under G418 selection and the selective medium was replaced approximately every 2-3 days. After two passages, colonies of stable cells were isolated, expanded and frozen for further use.
Test drugs were dispensed at a concentration of 10 μM by a robotic system into 96-well plates containing 9000 cells/well expressing the pGL4.17 reporter construct carrying a 585 bp SAMD9 promoter fragment operably linked to luciferase gene or the empty pGL4.17 luciferase construct (Promega cat. no. E6721). Medium was removed after 24 hours and the cells subjected to Steady-Glo luciferase lysis-substrate solution assay (Promega) as described above. Liquid handling was done with the Tecan (Tecan) Freedom 150 (Robotic & MCA liquid Handling System) and the luciferase reading was done with a robot integrated Tecan Infinite® M1000 reader.
This cell line was then used to robotically screen a total of 1496 compounds obtained from the National Cancer Institute Diversity Set III and Oncology Drugs Set III small molecule libraries.
A general note: In a reporter assay the amount or activity of a reporter protein is the signal.

The test system of a further assay is SAMD9. Nature of the assay: SAMD9 RNA expression by qRT-PCR in HeLa cells. The class given is cell-based, human. Conditions: fold increase in RNA gene expression vs cells treated with vehicle only. The procedure: HeLa cells were cultured in DMEM 4.5 g/l glucose medium containing 10% FCS, 1% L-glutamine and 1% penicillin and streptomycin (Biological Industries) and grown at 37° C. and 5% CO2.
Of note, when cells were incubated with CaCx and ApDx (NCI, MA USA), they were grown in the appropriate medium with 0.1% FCS only.
RNA was extracted from cell cultures using an RNA extraction kit (Roche Diagnostics, Mahheim, Germany). cDNA was synthesized from 500 ng of total RNA using the Verso cDNA kit (Thermo Fisher Scientific, Waltham, MA, USA). cDNA PCR amplification was carried out using the Fast SYBR Green Master Mix in a StepOnePlus™ Real-Time PCR System (Applied Biosystems, Foster City, CA, USA) with gene-specific intron-crossing oligonucleotide pairs listed in Table 1 (below). For quantification, standard curves were obtained using serially diluted cDNA amplified in the same qRT-PCR run. The melting temperature (Tm) of the amplified products was measured to confirm the specificity of the reaction conditions. Cycling conditions were as follows: 95° C. for 10 minutes, 95° C. for 10 seconds, 62° C. for 15 seconds, and 72° C. for 25 seconds for a total of 40 cycles. Each sample was analyzed in triplicate. mRNA expression level for target gene was normalized to GAPDH. The results are based the amount of target, normalized to an endogenous reference (IACTB) and relative to a calibrator, as calculated by 2-ΔΔCT. All samples were run in triplicate. The expression levels of target genes were expressed as mRNA relative units.
The potential ability of these 31 molecules to induce SAMD9 expression in cell cultures was then scrutinized.
In general terms: Real-time PCR tracks product formation cycle by cycle.

Each structure is given as a SMILES string. Where a name gives a salt, the structure may show the parent alone.

Turning to `COc1cccc2c1C(=O)c1c(O)c3c(c(O)c1C2=O)C[C@@](O)(C(C)=O)C[C@@H]3O[C@H]1C[C@H](N(Cc2ccccc2)Cc2ccccc2)[C@H](O)[C@H](C)O1` [Compound 268242, N,N-Dibenzyldaunorubicin hydrochloride], in the assay on SAMD9 promoter, the fold induction at 10 µM was 4.84. Moreover, the “SAMD9 expression fold change in HeLa cells” value in the assay on SAMD9 stood at 3.66 fold. Take `S=C(Nc1nnc(-c2ccccc2)c(-c2ccccc2)n1)N(/N=C/C=C/c1ccccc1)c1ccccc1` [Compound 640637, 3-Phenylacrylaldehyde N′-(5,6-diphenyl-1,2,4-triazin-3-yl)-N-phenylthiosemicarbazone]: the fold induction at 10 µM in the assay on SAMD9 promoter amounted to 2.32. For the same molecule, in the assay on SAMD9, the “SAMD9 expression fold change in HeLa cells” value was found to be 1.16 fold. On to `COc1cc2c3c(n(C)c(=O)c2cc1OC)-c1cc2c(cc1C3=O)OCO2` [Compound 314622, 5H-[1,3]Dioxolo[5,6]indeno[1,2-c]isoquinoline-5,12-dione, 2,3-dimethoxy-6-methyl-], for which the fold induction at 10 µM in the assay with SAMD9 promoter was 2.31. For the same molecule, in the assay on SAMD9, the “SAMD9 expression fold change in HeLa cells” value is recorded as 2.51 fold. Turning to `COc1ccc(-c2csc(=[N+]3CCCCC3)s2)cc1` [Compound 302358, Piperidinium, 1-[4-(4-methoxyphenyl)-1,3-dithiol-2-ylidene]-, sulfate (1:1)], the fold induction at 10 µM in the assay with SAMD9 promoter was determined as 2.72. For the same molecule, the “SAMD9 expression fold change in HeLa cells” value in the assay on SAMD9 is 0.84 fold. On to `O=C(c1nc2ccc(Cl)cc2nc1O)C(O)c1ccc2c(c1)OCO2` (stereo not shown) [Compound 642649, 2-(1,3-Benzodioxol-5-yl)-1-(6-chloro-3-hydroxy-2-quinoxalinyl)-2-hydroxyethanone], for which, in the assay with SAMD9 promoter, the fold induction at 10 µM was 2.8. In the assay with SAMD9, the “SAMD9 expression fold change in HeLa cells” value was found to be 0.85 fold. The corresponding values for `COc1ccc(/C=C2\Cc3ccccc3C2=O)cc1OC` [Compound 643174, 2-(3,4-Dimethoxybenzylidene)-1-indanone] are 2.17 and 1.29 fold. Regarding `NC(Cc1ccc2oc3cc(=O)c4ccccc4c-3nc2c1)C(=O)O` [Compound 672425, 1,2-Benzo-8-(L-alanyl)-3-phenoxazone nitrate salt], in the assay with SAMD9 promoter, the fold induction at 10 µM is 2.11. The “SAMD9 expression fold change in HeLa cells” value in the assay with SAMD9 was 0.98 fold. With `COc1ccc(/C=C2\CCc3ccccc3C2=O)cc1OC` [Compound 643175, 2-(3,4-Dimethoxybenzylidene)-1-tetralone], in the assay on SAMD9 promoter, the fold induction at 10 µM worked out at 2.47. In the assay with SAMD9, the “SAMD9 expression fold change in HeLa cells” value is reported as 0.89 fold. Take `Cc1c2cnccc2c(C)c2c1c1ccccc1n2CCOC(=O)c1ccccc1` [Compound 163443, 2-(5,11-dimethyl-6H-pyrido [4,3-b]carbazol-6-yl) ethyl benzoate]: in the assay with SAMD9 promoter, the fold induction at 10 µM stood at 2.24. Moreover, in the assay with SAMD9, the “SAMD9 expression fold change in HeLa cells” value stood at 6.49 fold. For `Cc1cccc(NC(=O)C=Cc2ccc([N+](=O)[O-])cc2)c1` [Compound 139109, N-(3-methylphenyl)-3-(4-nitrophenyl)acrylamide], in the assay on SAMD9 promoter, the fold induction at 10 µM worked out at 2.03. The “SAMD9 expression fold change in HeLa cells” value in the assay with SAMD9 worked out at 0.72 fold. For the molecule `COc1ccc(/C(=N\O)C(c2ccc(OC)cc2)C2C(=O)Oc3ccccc32)cc1` (stereo not shown) [Compound 641607, 3-(2-(Hydroxyimino)-1,2-bis(4-methoxyphenyl)ethyl)-1-benzofuran-2(3H)-one], the fold induction at 10 µM with SAMD9 promoter came to 3.25. Also, the “SAMD9 expression fold change in HeLa cells” value with SAMD9 was 1.27 fold. Take `COc1ccc2c(c1[N+](=O)[O-])CC[C@@H]1[C@@H]2CC[C@]2(C)C(=O)CC[C@@H]12` [Compound 321803, 4-Nitroestrone 3-methyl ether]: in the assay on SAMD9 promoter, the “SAMD9 expression fold change in HeLa reporter assay” value turned out to be 2.71 fold. Regarding `O=C1C(O)=C(CC=C(Cl)Cl)C(=O)c2ccccc21` [Compound 126771, Dichlorolawsone], in the assay with SAMD9 promoter, the fold induction at 10 µM was 2.23. In addition, in the assay on SAMD9, the “SAMD9 expression fold change in HeLa cells” value is 3.27 fold. Take `CCN1C(=O)/C(=C\Nc2ccccc2)S/C1=N\Nc1ncc(CC(=O)Nc2ccccc2C)s1` [Compound 658350, 2-(2-(2-(5-(Anilinomethylene)-3-ethyl-4-oxo-1,3-thiazolidin-2-ylidene)hydrazino)-1,3-thiazol-5-yl)-N-(2-methylphenyl) acetamide]: the fold induction at 10 µM in the assay with SAMD9 promoter is 2.03. In addition, the “SAMD9 expression fold change in HeLa cells” value in the assay with SAMD9 stood at 1.01 fold. Turning to `OC(CN1CCCCC1)c1ccc(/C=C/c2ccc(Cl)cc2)cc1` (stereo not shown) [Compound 26040], the fold induction at 10 µM with SAMD9 promoter came to 3.38. In addition, the “SAMD9 expression fold change in HeLa cells” value with SAMD9 came to 1.2 fold. Consider `Cc1cc(Cl)ccc1N1C(=O)C(=O)C(c2nc3ccccc3o2)C(=O)C1=O` [Compound 623051, 4-(1,3-Benzoxazol-2-yl)-1-(4-chloro-2-methylphenyl)-2,3,5,6-piperidinetetrone], for which, in the assay on SAMD9 promoter, the fold induction at 10 µM came to 2.74. Moreover, in the assay on SAMD9, the “SAMD9 expression fold change in HeLa cells” value was found to be 0.97 fold.

On to `CN(C)c1ccc2c(SCC(=O)OCC(=O)[C@@]3(O)CC[C@H]4[C@@H]5CCC6=CC(=O)C=C[C@]6(C)[C@H]5C(=O)C[C@@]43C)c3ccc(N(C)C)cc3nc2c1` [Compound 337851, Predorine], for which the fold induction at 10 µM with SAMD9 promoter was 2.37. Besides, in the assay on SAMD9, the “SAMD9 expression fold change in HeLa cells” value is 1.23 fold.

As to `C[C@@H](CSC(=O)c1ccccc1)C(=O)N1c2ccccc2C[C@@H]1C(=O)O` [Compound 604535, (2R)-1-[(2R)-2-methyl-3-phenylcarbonylsulfanyl-propanoyl]-2,3-dihydroindole-2-carboxylic acid], the fold induction at 10 µM in the assay with SAMD9 promoter amounted to 2.26. Further, the “SAMD9 expression fold change in HeLa cells” value with SAMD9 was 1.07 fold. With `CCN(CC)CCOc1ccccc1/C=C/c1noc2ccccc12` [Compound 601101, 2-(2-(2-(1,2-Benzisoxazol-3-yl)vinyl)phenoxy)-N,N-diethylethanamine hydrochloride], the fold induction at 10 µM with SAMD9 promoter was 2.13. Regarding `Nc1ncnc2c1nc(Cl)n2[C@@H]1O[C@@H]2COP(=O)(O)O[C@H]2[C@H]1O` [Compound 284751, Adenosine, 8-chloro-, cyclic 3′,5′-(hydrogen phosphate)], the fold induction at 10 µM with SAMD9 promoter came out at 2.14. Also, in the assay with SAMD9, the “SAMD9 expression fold change in HeLa cells” value was determined as 0.87 fold. As to `CN(C)C(=S)/N=c1\ss/c(=N\C(=S)N(C)C)n1-c1ccc2c(c1)OCO2` [Compound 622589, 3,3′-[4-(1,3-benzodioxol-5-yl)-1,2,4-dithiazolidine-3,5-diylidene]bis[1,1-dimethyl(thiourea)]], the fold induction at 10 µM in the assay with SAMD9 promoter is 4.32. Besides, the “SAMD9 expression fold change in HeLa cells” value with SAMD9 is 1.17 fold. In the case of `COc1c2c(cc3oc(=O)ccc13)OC(C)(C)C=C2` [Compound 35542, Xanthoxylin N], the fold induction at 10 µM with SAMD9 promoter came out at 4.08. In addition, the “SAMD9 expression fold change in HeLa cells” value in the assay with SAMD9 is given as 4.71 fold. Take `O=C1Oc2ccccc2C(=O)/C1=C1/C=C(c2ccccc2)SS1` [Compound 293927, (3E)-3-(5-phenyl-3H-1,2-dithiol-3-ylidene)-2H-chromene-2,4(3H)-dione]: the fold induction at 10 µM in the assay on SAMD9 promoter came to 2.82. Besides, in the assay with SAMD9, the “SAMD9 expression fold change in HeLa cells” value worked out at 1.77 fold.

For `CN(CCc1ccccn1)c1ccc2c(c1)C(=O)c1ccccc1-2` [Compound 24048, 2-(methyl(2-(2-pyridinyl)ethyl)amino)-9H-fluoren-9-one], the fold induction at 10 µM with SAMD9 promoter amounted to 2.84. In the assay with SAMD9, the “SAMD9 expression fold change in HeLa cells” value came out at 1.62 fold.

Regarding `CCN(CC)CCNc1ccc2nc(C)n3c4ccc(OC)cc4c(=O)c1c23.Cl` [Compound 637993, 5-{[2-(diethylamino)ethyl]amino}-8-methoxy-1-methyl-6h-imidazo[4,5,1-de] acridin-6-one hydrochloride (1:1)], the fold induction at 10 µM in the assay with SAMD9 promoter worked out at 3.7. Moreover, the “SAMD9 expression fold change in HeLa cells” value in the assay with SAMD9 is 6.34 fold. The corresponding values for `N#CC(NCc1cccc(CNC(C#N)c2ccccc2)c1)c1ccccc1` (stereo not shown) [Compound 681730, 2,2′-(1,3-phenylenebis (methylene))bis(azanediyl)bis(2-phenylacetonitrile)] are 2.48 and 1.6 fold. On the same counts, the results for `CN(C)c1ccc(/C=C2\Cc3ccccc3C2=O)cc1Br` [Compound 643163, 2-(3-Bromo-4-dimethylaminobenzylidene)-1-indanone] are 2.64 and 0.79 fold.

Values taken from patent publication US12023348B2, “EGR1 targeting molecules for the treatment of inflammatory and hyperproliferative conditions” (The Medical Research, Infrastructure and Health Services …, priority 2015, dated 2024).
